Results as given in patent US4070469A, “Compound for the treatment of bovine mastitis” (priority 1975, dated 1978).
≈ marks a conversion by molar mass, not a printed value. Entries after “also recorded” stand apart in the source; their conditions may differ. Like-named read-outs stand apart in the source and are kept apart here.

Tests used:
Staph.Aureus [1] = test: Minimal bactericidal activity (MBC) in milk, field isolates; format: cell-based; conditions: Staphylococcus aureus, in milk at pH 7.2 - 7.4
Source text: (§1) The activity of some of said nitrofuryl quinolines derivatives against Strep.uberis and Stap.Aureus in milk has been compared with the activity of some of the compounds so far utilised in the treatment of bovine mastitis. The results are shown in Table I. (The nitrofuryl quinoline derivatives have general formula [drawing 1] the meaning of R, A, R', B, Y, X and Z being given in the Table. R1 =O whenever indicated then the N-oxide is concerned; NF stands for nitrofuryl)
(§2) Minimal Bactericidal/Activity (MBC) of representative Nitrofuryl
(§3) in mcg/ml in milk at pH 7.2 - 7.4. Versus Standards (Field

Strep.uberis = test: as above; format: cell-based; conditions: Streptococcus uberis, in milk at pH 7.2 - 7.4
Source text: as §1, §2, §3

[2] = system: Strep.uberis and Stap.Aureus; test: Activity against mastitis bacteria in presence of milk (Table I, summary in words); format: cell-based
Source text: as §1

[3] = Residue of active compound in milk of the cow; format: in vivo; conditions: 500 mg in 7 ml P.E.G. base
Description: Said four compounds were then tested for the length of time they could be detected in the milk of the cow. For this purpose 500 mg in 7 ml of a polyethylene glycol (P.E.G.) base of each compound were administered to several cows and the residue of active compound in milk were measured in mcg/ml after 24, 32 and 40 hours respectively.

udder = test: Number of leucocytes (somatic cells) in milk / irritation of the udder; format: in vivo, cow
Description: Thereafter 500 mg of each of said compounds in 7 ml of a P.E.G. base and also 7 ml of said base above were administered to several cows and the number of leucocytes (sematic cells) in 10^6 per ml of milk were measured before administration and 40, 48 and 56 hours thereafter. The numbers of leucocytes present indicate the degree of irritation of the udder.

LD50 mice = conditions: mouse, in vivo
LD50 rats = conditions: rat, in vivo
C.pyogenes = test: Sensitivity of udder pathogens in milk, serial dilution; format: cell-based; conditions: 24 hours, 3 strains
Description: (§4) This indication was verified by testing in vitro by the method of serial dilution the sensitivity of said compound against udder pathogens in milk in various concentrations measured in meg/ml of milk. The number of strains which were killed at each concentration were measured after 24 hours.

Enterococci = test: as above; format: cell-based; conditions: 24 hours, 8 strains
Description: as §4

Staph.Aureus [4] = test: as above; format: cell-based; conditions: 24 hours, 86 strains
Description: as §4

Str.agalactiac = test: as above; format: cell-based; conditions: 24 hours, 34 strains
Description: as §4

Str.dysgalactiae = test: as above; format: cell-based; conditions: 24 hours, 18 strains
Description: as §4

Str.uberis = test: as above; format: cell-based; conditions: 24 hours, 32 strains
Description: as §4

Steph.aureus = test: Efficiency test in cows suffering from bovine mastitis; format: in vivo, cow; conditions: 2 doses, 24 hours interval
Description: In has been shown that said range is effectful by an efficiency test in which various doses of 4-(5-nitrofuryl)-.quinaldinic acid N-oxide were administered to cows suffering from bovine mastitis. There were adminstered 2 doses in intervals of 24 hours. The results are shown in Table V in cured quarters/treated quarters.

Str.dysgal. = test: as above; format: in vivo, cow; conditions: 2 doses, 24 hours interval
Str.uberls = test: as above; format: in vivo, cow; conditions: 2 doses, 24 hours interval
[5] = 25 meg/ml of milk (so in the source)

SMILES: O=C(O)c1cc(-c2ccc([N+](=O)[O-])o2)c2ccccc2[n+]1[O-] [Compound 1, 2-carboxy-4-[2'-(5'-nitrofuryl)]quinoline N-oxide]
- MBC (Staph.Aureus [1]; field isolate 2337, read-out: Minimal Bactericidal Activity (MBC), Staph.Aureus 2337): 0.5 µg/mL (≈ 1.67 µM)
- MBC (Staph.Aureus [1]; field isolate 2372, read-out: Minimal Bactericidal Activity (MBC), Staph.Aureus 2372): 0.25 µg/mL (≈ 0.833 µM)
- MBC (Strep.uberis; field isolate 60B, read-out: Minimal Bactericidal Activity (MBC), Strep.uberis 60B): 0.015 µg/mL (≈ 0.05 µM)
- MBC (Strep.uberis; field isolate 127A, read-out: Minimal Bactericidal Activity (MBC), Strep.uberis 127A): 0.25 µg/mL (≈ 0.833 µM)
- activity in presence of milk (in words) [2]: significant activity in milk; also recorded: the most active one
- time remaining in the milk (in words) [3]: remained the shortest time in the milk
- concentration at 24 h ([3]; bovine, milk, 24 hrs): 9800 ng/mL
- irritation of the udder (in words) (udder; 500 mg in 7 ml P.E.G. base): caused the lowest irritation
- number of leucocytes (sematic cells) in milk, 40 hrs. (udder; 40 hrs after 500 mg in 7 ml P.E.G. base): 0.95 10^6 per ml
- number of leucocytes (sematic cells) in milk, 48 hrs. (udder; 48 hrs after 500 mg in 7 ml P.E.G. base): 1.5 10^6 per ml
- number of leucocytes (sematic cells) in milk, 56 hrs. (udder; 56 hrs after 500 mg in 7 ml P.E.G. base): 0.95 10^6 per ml
- number of leucocytes (sematic cells) in milk, before (udder; before administration (baseline)): 0.28 10^6 per ml
- LD50 (LD50 mice): 3000 mg/kg
- LD50 (LD50 rats): 1600 mg/kg
- number of strains killed (C.pyogenes; 0.62 meg/ml of milk): 1 strains
- number of strains killed (C.pyogenes; 1.25 meg/ml of milk): 2 strains
- number of strains killed (Enterococci; 0.04 meg/ml of milk): 2 strains
- number of strains killed (Enterococci; 0.08 meg/ml of milk): 3 strains
- number of strains killed (Enterococci; 0.16 meg/ml of milk): 2 strains
- number of strains killed (Enterococci; 0.31 meg/ml of milk): 1 strains
- number of strains killed (Staph.Aureus [4]; 0.16 meg/ml of milk): 4 strains
- number of strains killed (Staph.Aureus [4]; 0.31 meg/ml of milk): 14 strains
- number of strains killed (Staph.Aureus [4]; 0.62 meg/ml of milk): 51 strains
- number of strains killed (Staph.Aureus [4]; 1.25 meg/ml of milk): 15 strains
- number of strains killed (Staph.Aureus [4]; [5]): 1 strains
- number of strains killed (Str.agalactiac; 0.02 meg/ml of milk): 5 strains
- number of strains killed (Str.agalactiac; 0.04 meg/ml of milk): 12 strains
- number of strains killed (Str.agalactiac; 0.08 meg/ml of milk): 13 strains
- number of strains killed (Str.agalactiac; 0.16 meg/ml of milk): 1 strains
- number of strains killed (Str.agalactiac; 0.31 meg/ml of milk): 1 strains
- number of strains killed (Str.agalactiac; 0.62 meg/ml of milk): 1 strains
- number of strains killed (Str.agalactiac; 1.25 meg/ml of milk): 1 strains
- number of strains killed (Str.dysgalactiae; 0.02 meg/ml of milk): 1 strains
- number of strains killed (Str.dysgalactiae; 0.04 meg/ml of milk): 2 strains
- number of strains killed (Str.dysgalactiae; 0.08 meg/ml of milk): 13 strains
- number of strains killed (Str.dysgalactiae; 0.16 meg/ml of milk): 1 strains
- number of strains killed (Str.dysgalactiae; 0.62 meg/ml of milk): 1 strains
- number of strains killed (Str.uberis; 0.16 meg/ml of milk): 1 strains
- number of strains killed (Str.uberis; 0.31 meg/ml of milk): 9 strains
- number of strains killed (Str.uberis; 0.62 meg/ml of milk): 18 strains
- number of strains killed (Str.uberis; 1.25 meg/ml of milk): 2 strains
- number of strains killed (Str.uberis; 5 meg/ml of milk): 1 strains
- number of strains killed (Str.uberis; [5]): 1 strains
- cured quarters, percent (Steph.aureus; 50 mg): 50%
- cured quarters/treated quarters (Steph.aureus; 50 mg): 15/30
- cured quarters, percent (Steph.aureus; 100 mg): 75%
- cured quarters/treated quarters (Steph.aureus; 100 mg): 6/8
- cured quarters, percent (Steph.aureus; 250 mg): 75%
- cured quarters/treated quarters (Steph.aureus; 250 mg): 6/8
- cured quarters, percent (Steph.aureus; 500 mg): 88%
- cured quarters/treated quarters (Steph.aureus; 500 mg): 8/9
- cured quarters, percent (Str.dysgal.; 50 mg): 62.5%
- cured quarters/treated quarters (Str.dysgal.; 50 mg): 10/16
- cured quarters, percent (Str.dysgal.; 100 mg): 80%
- cured quarters/treated quarters (Str.dysgal.; 100 mg): 4/5
- cured quarters, percent (Str.dysgal.; 250 mg): 83%
- cured quarters/treated quarters (Str.dysgal.; 250 mg): 5/6
- cured quarters, percent (Str.uberls; 50 mg): 61.5%
- cured quarters/treated quarters (Str.uberls; 50 mg): 8/13
- cured quarters, percent (Str.uberls; 100 mg): 80%
- cured quarters/treated quarters (Str.uberls; 100 mg): 4/5
- cured quarters, percent (Str.uberls; 250 mg): 80%
- cured quarters/treated quarters (Str.uberls; 250 mg): 4/5
- cured quarters, percent (Str.uberls; 500 mg): 84%
- cured quarters/treated quarters (Str.uberls; 500 mg): 5/6
